These results are taken from PubChem BioAssay AID402 (SGCOxCompounds, 2006).

The assay deals with Tyrosine-protein phosphatase non-receptor type 14 (Homo sapiens) (UniProt Q15678). In words: PTPN14 phosphatase inhibitors, biochemical, human, DiFMUP fluorescence (AID 402). Conditions: recombinant PTPN14, DiFMUP fluorescence phosphatase assay; at 50 µM; stronger effect = higher value.

SMILES strings stand for the structures.

Sequence of Tyrosine-protein phosphatase non-receptor type 14 (Homo sapiens) (Q15678 whole entry, looked up): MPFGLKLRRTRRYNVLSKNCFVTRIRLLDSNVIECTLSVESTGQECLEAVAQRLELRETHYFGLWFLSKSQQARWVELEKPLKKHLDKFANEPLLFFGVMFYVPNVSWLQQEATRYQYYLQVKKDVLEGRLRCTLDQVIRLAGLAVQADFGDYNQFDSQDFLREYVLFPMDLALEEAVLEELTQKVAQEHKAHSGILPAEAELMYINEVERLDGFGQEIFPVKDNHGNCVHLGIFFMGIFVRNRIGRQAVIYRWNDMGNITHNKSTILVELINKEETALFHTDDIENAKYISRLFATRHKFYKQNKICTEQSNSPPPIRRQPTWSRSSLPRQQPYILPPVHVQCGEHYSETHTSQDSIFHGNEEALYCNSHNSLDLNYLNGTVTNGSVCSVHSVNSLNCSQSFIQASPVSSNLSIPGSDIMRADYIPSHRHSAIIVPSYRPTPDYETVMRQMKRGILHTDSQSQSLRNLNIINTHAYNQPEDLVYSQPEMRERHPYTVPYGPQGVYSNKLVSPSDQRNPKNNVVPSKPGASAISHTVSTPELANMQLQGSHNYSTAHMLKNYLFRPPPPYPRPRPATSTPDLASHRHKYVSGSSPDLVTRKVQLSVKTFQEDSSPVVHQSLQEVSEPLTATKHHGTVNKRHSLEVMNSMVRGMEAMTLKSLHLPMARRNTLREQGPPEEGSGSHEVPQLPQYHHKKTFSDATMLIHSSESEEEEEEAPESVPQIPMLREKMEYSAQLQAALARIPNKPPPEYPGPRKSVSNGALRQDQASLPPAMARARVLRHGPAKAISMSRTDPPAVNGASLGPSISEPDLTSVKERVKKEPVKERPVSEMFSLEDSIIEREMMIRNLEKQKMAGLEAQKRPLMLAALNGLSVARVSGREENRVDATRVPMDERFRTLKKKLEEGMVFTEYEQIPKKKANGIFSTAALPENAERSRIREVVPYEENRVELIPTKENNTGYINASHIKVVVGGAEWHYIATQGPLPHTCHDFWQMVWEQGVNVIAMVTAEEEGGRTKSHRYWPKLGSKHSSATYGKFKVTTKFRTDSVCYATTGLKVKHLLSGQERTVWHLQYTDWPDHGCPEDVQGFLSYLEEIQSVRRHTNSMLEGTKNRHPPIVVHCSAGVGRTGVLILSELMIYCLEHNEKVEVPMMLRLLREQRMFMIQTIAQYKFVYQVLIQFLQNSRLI

By inhibition is commonly meant the relative decrease from the control value, in per cent. Take `O=P(O)(O)Oc1cccc2ccccc12`: the inhibition was 26%.

Turning to `CN(N=O)c1ccc(O)c(O)c1`, the inhibition was 68%.

For `Cn1nc(/C=C/c2ccccc2)nc2c(=O)n(C)c(=O)nc1-2`, the inhibition was 37%.

In the case of `OO.OO.[K+].[O]=[V].c1ccc(-c2ccccn2)nc1`, the inhibition was 72%.

Consider `O=P(O)(O)OC(CO)CO`, for which the inhibition is 27%.

`CCn1nc(-c2ccccc2)nc2c(=O)n(C)c(=O)nc1-2`: the inhibition was 25.5%.

With `O=C(O)c1ccc([O-])cn1.OO.OO.[K+].[K+].[O]=[V]`, the inhibition is 70%.

Take `CCn1nc(/C=C/c2ccccc2)[n+](=O)c2c(=O)n(C)c(=O)[nH]c21`: the inhibition was 33%.

As for `c1ccc([C@H]2CN3CCSC3=N2)cc1`, the inhibition is 27%.

For the compound `[NH-]CO.[NH-]CO.[NH-]CO.[NH-]CO.[O]=[V][O][V]=[O]`, the inhibition was 28.5%.

As for `Cn1c(=O)[nH]c2c(c1=O)[n+](=O)c(/C=C/c1ccccc1)nn2C`, the inhibition was 28%.

`O=C([O-])c1ccccn1.OO.OO.[K+].[K+].[O]=[V]`: the inhibition was 73%.

Regarding `O=C(O)c1ccc(O)cn1.OO.[O]=[V]`, the inhibition was 62.5%.

As for `OO.OO.[K+].[O]=[V].c1cnc2c(c1)ccc1cccnc12`, the inhibition is 49%.

For `Cn1nc(-c2ccccc2)nc2c(=O)n(C)c(=O)nc1-2`, the inhibition was 39.5%.

For the compound `CCn1nc(/C=C/c2ccccc2)nc2c(=O)n(C)c(=O)nc1-2`, the inhibition is 24%.

As to `CCn1nc(-c2ccc(Cl)cc2)nc2c(=O)n(C)c(=O)nc1-2`, the inhibition was 30.5%.
